Literature values as cited in patent publication US8865213B2, “Modified release pharmaceutical compositions” (USV Limited, priority 2009, dated 2014).

## COC(=O)C1=C(C)NC(C)=C(C(=O)OCC(C)C)C1c1ccccc1[N+](=O)[O-] (centres unmarked) [Nisoldipine, 3,5-pyridinedicarboxylic acid, 1,4-dihydro-2,6-dimethyl-4-(2-nitrophenyl)-, methyl 2-methyl-propyl ester]
ethanol
  Solubility in ethanol: soluble
water
  Solubility in water: practically insoluble
